Assay results taken from patent US8835134B2, “Cycloastragenol monoglucoside, preparation, pharmaceutical composition and application thereof” (Tianjin Institute of Pharmaceutical Research, priority 2007, dated 2014).

Tested on: anesthetized open-chest dogs
Assay: Hemodynamics of anesthetized open-chest dogs, intravenous infusion
Type: in vivo, mongrel dogs
Description: The animals were anesthetized by intravenous injection of 30 mg/kg sodium pentobarbital, tracheally intubated, and mechanically ventilated with positive air pressure. Left thoracotomy was performed through the fourth intercostal space and the heart was suspended in a pericardial cradle, the aortic root was isolated and a probe of blood flow meter (12 or 14 mm in diameter) was fixed to measure the aortic blood flow as a representation of cardiac output (CO), the circumflex branch of left coronary artery was isolated and a probe of blood flow meter (2 or 2.5 mm in diameter) was fixed to measure the coronary blood flow (CBF). A polyethylene catheter filled with heparin physiological saline was inserted through cardiac apex into the left ventricle to measure the left ventricular pressure (LVP) and left ventricular end-diastolic pressure (LVEDP), Peak positive and peak negative first derivatives of the LVP (+ LVdp/dt and − LVdp/dt) were calculated with the Acknowledge software. The systolic blood pressure (SBP), diastolic blood pressure (DBP) and mean arterial pressure (MAP) were measured by polyethylene catheter via the femoral artery, ECG □ was measured by a AC-601G ECG amplifier. The above-mentioned analog signal was input into a data acquisition workstation (MP100, BIOPAC Systems, USA) to a computer running Acknowledge (version 3.7.1).
After surgery, various indexes before administration were recorded until the indexes were stable, and then intravenous infusion administration was conducted. Thirty dogs were divided into five groups (six dogs in each group), the experiment groups were given 0.15, 0.3, 0.6 mg/kg of ASP-[…] respectively, the normal control group was given 1 ml/kg of solvent, and the positive control group was given 0.3 mg/kg of astragaloside IV. The delivery volumes were 15 ml for each dog was and the delivery velocity was 1 ml/min. The indexes were recorded at 5, 10, 15, 20, 30, 45, 60, 90 and 120 mins after drug administration. At the end of experiment, the hearts were excised and weighted. The myocardial blood flow for per hectogram (CF), coronary resistance (CR), cardiac index (CI), left ventricular work (LVW) and total peripheral resistance (TPR) were calculated according to the following formulae: CF=CBF×[…]/heart weight CR=MAP/CF CI=CO/0.11×(body weight)^2/3 LVW=CO×(MAP−5)×1.052×0.0136 TPR=MAP×79.92/CO
Data are expressed as mean±SD ( x±s), the paired t-test was used to compare the significance between before and after administration, the unpaired t-test was adopted for comparison between groups.

[1] = 0.15 mg/kg iv, 90 min after administration
[2] = 0.15 mg/kg iv, 120 min after administration
[3] = 0.15 mg/kg iv, before administration
[4] = 0.3 mg/kg iv, 5 min after administration
[5] = 0.3 mg/kg iv, 10 min after administration
[6] = 0.3 mg/kg iv, 15 min after administration
[7] = 0.3 mg/kg iv, 20 min after administration
[8] = 0.3 mg/kg iv, 30 min after administration

CC(C)(O)[C@@H]1CC[C@](C)([C@H]2[C@@H](O)C[C@@]3(C)C4C[C@H](OC5OC(CO)C(O)C(O)C5O)C5C(C)(C)[C@@H](O)CC[C@@]56C[C@@]46CC[C@]23C)O1 (stereo partly drawn) [CMG, Cycloastragenol-6-O-β-D-glucoside]
CO change vs before administration [1]: (−0.15 ± 0.24) L/min | CR [1]: 1.36 ± 0.37 mmHg/ml/min/100 g | CR change vs before administration [1]: (0.00 ± 0.24) mmHg/ml/min/100 g | LVEDP [1]: 1.4 ± 2.4 mmHg | LVEDP change vs before administration [1]: (−0.40 ± 0.43) mmHg | LVP [1]: 101 ± 18 mmHg | LVP change vs before administration [1]: (−3.5 ± 7.6) mmHg | LVW [1]: 0.96 ± 0.24 kg · m | LVW change vs before administration [1]: (−0.16 ± 0.34) kg · m | TPR [1]: 5576 ± 2153 dyn · s/cm^5 | TPR change vs before administration [1]: (426 ± 770) dyn · s/cm^5 | dp/dt [1]: 1121 ± 412 mmHg/s | dp/dt change vs before administration [1]: (−28 ± 90) mmHg/s | −dp/dt [1]: −857 ± 243 mmHg/s | −dp/dt change vs before administration [1]: (31 ± 128) mmHg/s | CF [2]: 56.5 ± 16.6 ml/min/100 g | CF change vs before administration [2]: (−1.2 ± 13.7) ml/min/100 g | CI [2]: 1.79 ± 0.37 L/min/m^2 | CI change vs before administration [2]: (−0.29 ± 0.45) L/min/m^2 | CO [2]: 1.03 ± 0.19 L/min | CO change vs before administration [2]: (−0.17 ± 0.28) L/min | CR [2]: 1.35 ± 0.44 mmHg/ml/min/100 g | CR change vs before administration [2]: (−0.01 ± 0.25) mmHg/ml/min/100 g | LVEDP [2]: 1.6 ± 2.3 mmHg | LVEDP change vs before administration [2]: (−0.15 ± 0.44) mmHg | LVP [2]: 103 ± 22 mmHg | LVP change vs before administration [2]: (−1.8 ± 8.1) mmHg | LVW [2]: 0.99 ± 0.36 kg · m | LVW change vs before administration [2]: (−0.13 ± 0.37) kg · m | TPR [2]: 5734 ± 1774 dyn · s/cm^5 | TPR change vs before administration [2]: (584 ± 1030) dyn · s/cm^5 | dp/dt [2]: 1138 ± 387 mmHg/s | dp/dt change vs before administration [2]: (−11 ± 92) mmHg/s | −dp/dt [2]: −897 ± 263 mmHg/s | −dp/dt change vs before administration [2]: (−9 ± 176) mmHg/s | CF [3]: 57.7 ± 24.1 ml/min/100 g | CI [3]: 2.08 ± 0.63 L/min/m^2 | CO [3]: 1.21 ± 0.38 L/min | CR [3]: 1.35 ± 0.44 mmHg/ml/min/100 g | LVEDP [3]: 1.8 ± 2.2 mmHg | LVP [3]: 105 ± 22 mmHg | LVW [3]: 1.12 ± 0.42 kg · m | TPR [3]: 5150 ± 2321 dyn · s/cm^5 | dp/dt [3]: 1150 ± 391 mmHg/s | −dp/dt [3]: −888 ± 310 mmHg/s | ±LVdp/dtmax (0.15 mg/kg iv, within 120 min): no significant change | LVEDP maximum decrease (0.3 mg/kg iv): 1.5±0.8 mmHg | CF [4]: 51.7 ± 20.7 ml/min/100 g | CF change vs before administration [4]: (1.5 ± 5.3) ml/min/100 g | CI [4]: 2.09 ± 0.86 L/min/m^2 | CI change vs before administration [4]: (0.11 ± 0.16) L/min/m^2 | CO [4]: 1.16 ± 0.39 L/min | CO change vs before administration [4]: (0.06 ± 0.09) L/min | CR [4]: 1.57 ± 0.74 mmHg/ml/min/100 g | CR change vs before administration [4]: (0.04 ± 0.17) mmHg/ml/min/100 g | LVEDP [4]: 1.3 ± 2.5 mmHg | LVEDP change vs before administration [4]: (−0.39 ± 0.38) mmHg | LVP [4]: 107 ± 21 mmHg | LVP change vs before administration [4]: (4.1 ± 4.9) mmHg | LVW [4]: 1.12 ± 0.49 kg · m | LVW change vs before administration [4]: (0.10 ± 0.07) kg · m | TPR [4]: 5248 ± 1878 dyn · s/cm^5 | TPR change vs before administration [4]: (−52 ± 829) dyn · s/cm^5 | dp/dt [4]: 1308 ± 448 mmHg/s | dp/dt change vs before administration [4]: (47 ± 34) mmHg/s | −dp/dt [4]: −958 ± 313 mmHg/s | −dp/dt change vs before administration [4]: (−37 ± 44) mmHg/s | CF [5]: 53.5 ± 21.1 ml/min/100 g | CF change vs before administration [5]: (3.3 ± 3.2) ml/min/100 g | CI [5]: 1.96 ± 0.85 L/min/m^2 | CI change vs before administration [5]: (−0.03 ± 0.23) L/min/m^2 | CO [5]: 1.09 ± 0.39 L/min | CO change vs before administration [5]: (−0.01 ± 0.14) L/min | CR [5]: 1.50 ± 0.71 mmHg/ml/min/100 g | CR change vs before administration [5]: (−0.03 ± 0.12) mmHg/ml/min/100 g | LVEDP [5]: 1 ± 2.4 mmHg | LVEDP change vs before administration [5]: (−0.75 ± 0.34) mmHg | LVP [5]: 106 ± 22 mmHg | LVP change vs before administration [5]: (2.3 ± 6.9) mmHg | LVW [5]: 1.02 ± 0.44 kg · m | LVW change vs before administration [5]: (0.00 ± 0.15) kg · m | TPR [5]: 5683 ± 2354 dyn · s/cm^5 | TPR change vs before administration [5]: (384 ± 1293) dyn · s/cm^5 | dp/dt [5]: 1358 ± 444 mmHg/s | dp/dt change vs before administration [5]: (97 ± 68) mmHg/s | −dp/dt [5]: −925 ± 299 mmHg/s | −dp/dt change vs before administration [5]: (−4 ± 80) mmHg/s | CF [6]: 51.3 ± 21.1 ml/min/100 g | CF change vs before administration [6]: (1.1 ± 4.2) ml/min/100 g | CI [6]: 1.98 ± 0.84 L/min/m^2 | CI change vs before administration [6]: (−0.01 ± 0.28) L/min/m^2 | CO [6]: 1.10 ± 0.38 L/min | CO change vs before administration [6]: (0.00 ± 0.17) L/min | CR [6]: 1.56 ± 0.76 mmHg/ml/min/100 g | CR change vs before administration [6]: (0.02 ± 0.15) mmHg/ml/min/100 g | LVEDP [6]: 0.7 ± 2.6 mmHg | LVEDP change vs before administration [6]: (−1.06 ± 0.54) mmHg | LVP [6]: 106 ± 20 mmHg | LVP change vs before administration [6]: (2.3 ± 5.4) mmHg | LVW [6]: 1.02 ± 0.44 kg · m | LVW change vs before administration [6]: (0.00 ± 0.16) kg · m | TPR [6]: 5535 ± 2356 dyn · s/cm^5 | TPR change vs before administration [6]: (236 ± 1386) dyn · s/cm^5 | dp/dt [6]: 1367 ± 470 mmHg/s | dp/dt change vs before administration [6]: (106 ± 54) mmHg/s | −dp/dt [6]: −947 ± 308 mmHg/s | −dp/dt change vs before administration [6]: (−25 ± 74) mmHg/s | CF [7]: 51.4 ± 19.2 ml/min/100 g | CF change vs before administration [7]: (1.2 ± 4.0) ml/min/100 g | CI [7]: 1.94 ± 0.81 L/min/m^2 | CI change vs before administration [7]: (−0.04 ± 0.11) L/min/m^2 | CO [7]: 1.08 ± 0.36 L/min | CO change vs before administration [7]: (−0.02 ± 0.06) L/min | CR [7]: 1.51 ± 0.68 mmHg/ml/min/100 g | CR change vs before administration [7]: (−0.02 ± 0.14) mmHg/ml/min/100 g | LVEDP [7]: 0.6 ± 2.5 mmHg | LVEDP change vs before administration [7]: (−1.16 ± 0.89) mmHg | LVP [7]: 104 ± 23 mmHg | LVP change vs before administration [7]: (1.2 ± 6.9) mmHg | LVW [7]: 1.02 ± 0.47 kg · m | LVW change vs before administration [7]: (0.00 ± 0.05) kg · m | TPR [7]: 5513 ± 1980 dyn · s/cm^5 | TPR change vs before administration [7]: (214 ± 869) dyn · s/cm^5 | dp/dt [7]: 1348 ± 487 mmHg/s | dp/dt change vs before administration [7]: (87 ± 77) mmHg/s | −dp/dt [7]: −937 ± 289 mmHg/s | −dp/dt change vs before administration [7]: (−16 ± 91) mmHg/s | CF [8]: 51.4 ± 24.5 ml/min/100 g | CF change vs before administration [8]: (1.2 ± 6.2) ml/min/100 g | CI [8]: 1.92 ± 0.78 L/min/m^2 | CI change vs before administration [8]: (−0.06 ± 0.30) L/min/m^2 | CO [8]: 1.07 ± 0.36 L/min | CO change vs before administration [8]: (−0.03 ± 0.18) L/min | CR [8]: 1.51 ± 0.74 mmHg/ml/min/100 g | CR change vs before administration [8]: (−0.02 ± 0.09) mmHg/ml/min/100 g | LVEDP [8]: 0.6 ± 2.4 mmHg | LVEDP change vs before administration [8]: (−1.11 ± 0.87) mmHg | LVP [8]: 102 ± 23 mmHg | LVP change vs before administration [8]: (−1.3 ± 4.7) mmHg | LVW [8]: 0.97 ± 0.46 kg · m | LVW change vs before administration [8]: (−0.05 ± 0.13) kg · m | TPR [8]: 5318 ± 2153 dyn · s/cm^5 | TPR change vs before administration [8]: (19 ± 1444) dyn · s/cm^5 | dp/dt [8]: 1304 ± 459 mmHg/s | dp/dt change vs before administration [8]: (43 ± 100) mmHg/s | −dp/dt [8]: −885 ± 293 mmHg/s
